Experimental data published in ChEMBL document CHEMBL1155654, “Acylated flavonol glycosides from the flower of Inula britannica” (J Nat Prod, 2000).
Converted amounts (≈) assume the structure as drawn. The source made the active and inactive calls. The rule behind the calls is not given here.

What was measured:
[1] = test system: HL-60; experiment: Antioxidant activity in human HL60 cells assessed as reduction of cytochrome-c […]; assay type: functional, cell-based
[2] = test system: HL-60; experiment: Antioxidant activity in human HL60 cells assessed as inhibition of TPA-induced free radical formation; assay type: functional, cell-based
[3] = test system: Radical scavenging activity; experiment: Antioxidant activity assessed as DPPH free radical scavenging activity; assay type: functional

Row | SMILES | IC50 [1] [µg/mL] | Activity [2] | IC50 [3] [µg/mL]
1 | COc1c(O[C@@H]2O[C@H](COC(=O)C(C)C)[C@@H](O)[C@H](O)[C@H]2O)cc2oc(-c3ccc(O)c(O)c3)c(O)c(=O)c2c1O | 10.6 (≈ 18.8 µM) | Active | 14.3 (≈ 25.3 µM)
2 | COc1c(O[C@@H]2O[C@H](COC(=O)CC(C)C)[C@@H](O)[C@H](O)[C@H]2O)cc2oc(-c3ccc(O)c(O)c3)c(O)c(=O)c2c1O | 11.7 (≈ 20.2 µM) | Active | 14.3 (≈ 24.7 µM)
3 | CCC(C)C(=O)OC[C@H]1O[C@@H](Oc2cc3oc(-c4ccc(O)c(O)c4)c(O)c(=O)c3c(O)c2OC)[C@H](O)[C@@H](O)[C@@H]1O (some centres undefined) | 11.2 (≈ 19.4 µM) | Active | 23.5 (≈ 40.6 µM)
4 | O=c1c(O[C@@H]2O[C@H](CO)[C@@H](O)[C@H](O)[C@H]2O)c(-c2ccc(O)cc2)oc2cc(O)cc(O)c12 [ASTRAGALIN] | > 50 | – | > 100
5 | COc1c(O)cc2oc(-c3ccc(O)c(O)c3)c(OC)c(=O)c2c1O [AXILLARIN] | 2.9 (≈ 8.37 µM) | Active | 12.4 (≈ 35.8 µM)
6 | O=C(O)c1cc(O)c(O)c(O)c1 [GALLIC ACID] | 3.2 (≈ 18.8 µM) | – | 3.7 (≈ 21.7 µM)
7 | COc1c(O[C@@H]2O[C@H](CO)[C@@H](O)[C@H](O)[C@H]2O)cc2oc(-c3ccc(O)cc3)cc(=O)c2c1O [HISPIDULOSIDE] | > 50 | – | > 100
8 | O=c1c(O)c(-c2ccc(O)cc2)oc2cc(O)cc(O)c12 [KAEMPFEROL] | 10 (≈ 34.9 µM) | – | 74.4 (≈ 260 µM)
9 | O=c1cc(-c2ccc(O)c(O)c2)oc2cc(O)cc(O)c12 [LUTEOLIN] | 12.1 (≈ 42.3 µM) | Active | 7.2 (≈ 25.2 µM)
10 | COc1c(O)cc2oc(-c3ccc(O)c(O)c3)c(O)c(=O)c2c1O [PATULETIN] | 10.1 (≈ 30.4 µM) | Active | 9 (≈ 27.1 µM)
11 | COc1c(O[C@@H]2O[C@H](CO)[C@@H](O)[C@H](O)[C@H]2O)cc2oc(-c3ccc(O)c(O)c3)c(O)c(=O)c2c1O [PATULITRIN] | 8.1 (≈ 16.4 µM) | Active | 10.3 (≈ 20.8 µM)
